From patent US20220096515A1, “Methods and Formulations for Preventing Neurological or Psychiatric Disorders” (Huntington Medical Research Institutes, priority 2020, published 2022)

Experiments:
[1] = system: GABAergic neurons isolated at E18 from Gabrb3^ECKO; assay: In vitro neuronal migration assay after in vivo NAD+ treatment paradigm; assay type: cell-based, mouse; settings: neurons isolated at E18 after in vivo treatment E12-E17
Method: Isolation and primary culture of neuronal cells: Primary culture of embryonic GABAergic neurons from CD1 telencephalon or after the saline or NAD+ treatment paradigms were performed using established methods. Briefly, embryonic brains were extracted under a stereo microscope and placed into cold PBS. After removal of the pial membrane, the telencephalon was dissected from each embryonic brain. The telencephalon was minced into 1-2 mm slices in cold PBS. Minced telencephalon was treated with 0.1× trypsin/EDTA at 37° C. for 5 min. Trypsin treatment was stopped by adding FBS-DMEM media and DNase I consecutively. […]
Neuronal migration assay: In preparation for cell migration assays, one well square culture inserts (ibidi GmbH) were placed in the center of a poly-Ornithine/Laminin coated 35 mm dish, to make a small rectangular patch that is labeled outside the dish. […] Neuronal migration was assessed by measuring the distance between the final positions of cells from the border of the rectangular patch was outlined on the first day, using ImageJ software.
To test if the prenatal NAD^+ treatment was able to influence GABAergic neuronal migration, an in vitro neuronal migration assay was performed (FIG. 6M), after the in vivo NAD^+ treatment paradigm (E12-E17). […] Images of GFP^+ cells that had entered the dorsal telencephalon at E18 were collected and analyzed. […]

[2] = system: Gabrb3^ECKO endothelial cells; assay: qRT-PCR of periventricular endothelial cells after prenatal treatment; assay type: in vivo, mouse
Method: Primary culture of endothelial cells and endothelial cell staining: Embryonic brains were dissected under a stereo-microscope, after the NAD^+ treatment paradigm and the telencephalon was removed. Pial membranes were peeled off. Telencephalon without pial membranes from the periventricular region was pooled. Purity of endothelial cell cultures was established with endothelial cell markers and determined to be one hundred percent. Isolation and culture of endothelial cells were performed according to published methodology. Periventricular endothelial cells were prepared from CD1 (wild type), saline-treated Gabrb3^fl/fl, saline-treated Gabrb3^ECKO, and NAD^+-treated Gabrb3^ECKO embryos. Endothelial cells were labeled with anti-biotinylated isolectinB4 (1:100, Sigma), anti-GABA (1:400, Sigma), anti-DAXX (1:100, Santa Cruz Biotechnology) and anti-P2X4 (1:100, Abclonal) followed by secondary detection with AlexaFluor conjugates (Invitrogen). DAPI (Invitrogen) was used to label nuclei. Images were taken on an FSX100 microscope (Olympus). 1 million cells were examined for each immunohistochemistry condition.
Quantitative real-time PCR: RT was performed by using iScript Reverse Transcription Supermix kit (Bio-Rad). PCR reactions were run on a CFX96 Touch Real Time PCR (Bio-Rad) with SsoAdvanced™ Universal SYBR® Green Supermix (Bio-Rad). Primers for qPCR (Daxx, P2x4, P2x7, P2y13, Tek, vwf, F2r, Sirt2, Nos1, Nrp1, Pax6, Gad1, Gad2, Grin2a, Trpm2, Trpc4 and Trpv6) were obtained from Thermo Fisher Scientific. The housekeeping gene Gapdh was used as a reference. The relative gene expression and subsequent fold changes among different samples were determined according to published methodology.
To gain mechanistic insights into NAD^+ action on endothelial cells, periventricular endothelial cells were isolated from saline-treated Gabrb3^fl/fl, saline-treated Gabrb3^ECKO, and NAD^+-treated Gabrb3^ECKO groups at the end of the treatment paradigm. […] GABA is synthesized from glutamate by Gad genes. […] The qRT-PCR gene expression levels followed a similar trend with that of the levels in the microarray data, reinforcing that the whole-tissue microarray was capable of highlighting some endothelial cells specific gene changes (FIGS. 10A-10I). […] Taken together, our results implicate NAD^+ as a critical modulator of angiogenesis in the embryonic forebrain.

[3] = system: Gabrb3^ECKO mice; assay: Y maze spontaneous alternation test; assay type: in vivo, mouse; settings: vs saline-treated Gabrb3^ECKO mice
Method: Behavioral Experiments: Mice were housed in our animal facility with a 12-hour light cycle with ad libitum access to food and water. Offspring stayed with their mothers until weaning at PND 21 after which males and females were separated. Before all behavioral testing, mice were acclimated to the testing room for 1 hour. Behavioral assays were performed according to established protocols referenced here: self-grooming, light-dark box, tail suspension test, Y-maze, open field locomotion activity, three chamber social interaction test and nest building with nestlets and with shredded paper. Both males and females were used for all behavioral assays. Experimenters scoring behaviors were blinded to the genotypes and treatment. Sample sizes for each assay are noted in figure legends.
Anxiety was next assessed with the classic light-dark transition test which triggers a struggle between the desires to explore a novel environment versus natural aversion of a brightly illuminated open space. […] The Y maze spontaneous alternation test was used to evaluate for spatial learning and memory in the three groups of mice. After introduction to the center of the maze, the mice were given free access to all three arms. […] The total number of arm entries and the sequence of entries are recorded in order to calculate the percentage of alternation. […]

[4] = periventricular endothelial cells after prenatal treatment

SMILES: NC(=O)c1ccc[n+]([C@@H]2O[C@H](COP(=O)([O-])OP(=O)(O)OC[C@H]3O[C@@H](n4cnc5c(N)ncnc54)[C@H](O)[C@@H]3O)[C@@H](O)[C@H]2O)c1 [NAD^+]
- migration of β-Tubulin^+ neurons (cell number and distance) [1]: migrated robustly
- P2X7 and P2Y13 mRNA expression ([2]; after NAD^+ treatment): rescue of P2X7 and P2Y13 mRNA expression
- Gad1 and Gad2 expression by qRT-PCR [2, 4]: concurrently rescued
- calcium signaling genes (Grin2a, Trpm2, Trpc4, Trpv6) by qRT-PCR [2, 4]: rescue of several calcium signaling genes
- expression of angiogenesis regulators (Tek, vWF, F2r, Sirt2, Nos1, Pax6) by qRT-PCR [2, 4]: restored the expression of several critical regulators of angiogenesis
- percentage alternations [3]: significant increase in percentage alternations
